Experiment [1] concerns the target c-Raf (Homo sapiens, UniProt P04049). The experiment in a line: Luciferase-coupled chemiluminescence kinase assay (ATP consumption), c-Raf. In kind it is biochemical. The settings on record: read-out: cRaf-1 IC50. An outline of the steps:
(§1)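 Enzyme ([…]) was pre-incubated with compound for 30 min at room temperature in 20 mM Tris pH 7.5, 10 mM MgCl2, 0.03% TX-100, 1 mM DTT. ATP was added and the reaction ran 3 h at ambient temperature. Remaining ATP was read by luciferase-luciferin chemiluminescence, giving IC50 values.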

For experiment [2], the target named is B-Raf (Homo sapiens, UniProt P15056). The experiment is described as follows: Luciferase-coupled chemiluminescence kinase assay (ATP consumption), B-Raf. In kind it is biochemical. Particulars: read-out: bRaf IC50. The procedure, abridged:
as §1

pIC50: −log10 of the molar value. Some results are limits rather than exact numbers.

Chain of B-Raf (P15056 whole entry): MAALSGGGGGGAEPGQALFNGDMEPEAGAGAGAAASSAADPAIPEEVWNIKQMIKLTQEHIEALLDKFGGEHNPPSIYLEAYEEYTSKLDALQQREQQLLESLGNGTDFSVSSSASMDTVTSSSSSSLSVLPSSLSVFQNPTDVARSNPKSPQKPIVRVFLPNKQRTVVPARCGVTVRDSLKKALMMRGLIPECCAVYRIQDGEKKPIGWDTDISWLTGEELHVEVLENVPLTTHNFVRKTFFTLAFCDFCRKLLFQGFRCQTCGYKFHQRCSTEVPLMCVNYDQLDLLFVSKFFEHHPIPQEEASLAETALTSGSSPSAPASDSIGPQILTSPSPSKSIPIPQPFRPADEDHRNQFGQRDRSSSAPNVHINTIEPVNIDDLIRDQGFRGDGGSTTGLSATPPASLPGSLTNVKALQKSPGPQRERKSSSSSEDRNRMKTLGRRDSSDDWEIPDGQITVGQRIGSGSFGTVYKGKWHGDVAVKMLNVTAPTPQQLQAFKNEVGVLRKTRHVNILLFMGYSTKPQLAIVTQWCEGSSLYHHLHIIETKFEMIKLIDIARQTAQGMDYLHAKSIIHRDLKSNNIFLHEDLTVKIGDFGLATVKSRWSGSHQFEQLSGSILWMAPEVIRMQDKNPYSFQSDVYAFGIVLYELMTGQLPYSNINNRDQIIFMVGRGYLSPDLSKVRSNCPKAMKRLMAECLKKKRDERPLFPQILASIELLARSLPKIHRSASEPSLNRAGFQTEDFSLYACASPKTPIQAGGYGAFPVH
Chain of c-Raf (P04049 whole entry): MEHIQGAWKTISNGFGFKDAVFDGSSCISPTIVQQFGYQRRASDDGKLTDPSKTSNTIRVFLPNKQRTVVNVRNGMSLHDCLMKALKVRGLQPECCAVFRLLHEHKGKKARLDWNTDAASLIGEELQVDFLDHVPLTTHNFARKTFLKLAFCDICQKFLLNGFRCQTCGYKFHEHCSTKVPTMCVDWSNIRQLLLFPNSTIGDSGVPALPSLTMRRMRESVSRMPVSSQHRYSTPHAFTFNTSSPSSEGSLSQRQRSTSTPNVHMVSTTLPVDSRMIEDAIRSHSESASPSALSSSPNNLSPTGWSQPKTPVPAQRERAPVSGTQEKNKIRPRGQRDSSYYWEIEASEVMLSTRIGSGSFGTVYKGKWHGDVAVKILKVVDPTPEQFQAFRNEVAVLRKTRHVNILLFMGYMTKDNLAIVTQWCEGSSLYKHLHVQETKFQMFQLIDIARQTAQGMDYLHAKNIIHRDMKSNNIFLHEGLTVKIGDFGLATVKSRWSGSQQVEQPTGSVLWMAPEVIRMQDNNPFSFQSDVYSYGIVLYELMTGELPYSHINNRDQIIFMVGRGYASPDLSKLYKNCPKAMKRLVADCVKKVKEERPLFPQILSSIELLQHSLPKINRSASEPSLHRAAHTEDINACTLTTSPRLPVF

Broadly, the pIC50 is the negative decadic logarithm of the IC50, by convention in mol/L. With `COC(=O)Nc1nc2cc(C3(O)c4ccccc4C(=O)N3c3cc(Cl)c(Cl)cc3F)ccc2[nH]1` (stereo not shown) [Entry 250, methyl {5-[2-(4,5-dichloro-2-fluorophenyl)-1-hydroxy-3-oxo-2,3-dihydro-1H-isoindol-1-yl]-1H-benzimidazol-2-yl}carbamate], the pIC50 in experiment [1] and in experiment [2] was above 7.00 in each case.

With `COC(=O)Nc1nc2cc(C3(O)c4ccccc4C(=O)N3c3cccc(Br)c3F)ccc2[nH]1` (stereo not shown) [Entry 251, methyl {5-[2-(3-bromo-2-fluorophenyl)-1-hydroxy-3-oxo-2,3-dihydro-1H-isoindol-1-yl]-1H-benzimidazol-2-yl}carbamate], the negative logarithm of the IC50 (pIC50) in experiment [1] and in experiment [2] was above 7.00 each time.

In the case of `COC(=O)Nc1nc2cc(C3(O)c4ccccc4C(=O)N3c3ccc(F)c(Cl)c3F)ccc2[nH]1` (stereo not shown) [Entry 252, methyl {5-[2-(3-chloro-2,4-difluorophenyl)-1-hydroxy-3-oxo-2,3-dihydro-1H-isoindol-1-yl]-1H-benzimidazol-2-yl}carbamate], the negative logarithm of the IC50 (pIC50) in experiment [1] and in experiment [2] was above 7.00 each time.

For `C#CCCC(=O)Nc1nc2ccc(C3(O)c4ccccc4C(=O)N3Cc3ccccc3)cc2[nH]1` (stereo not shown) [Entry 253, N-{6-[1-hydroxy-3-oxo-2-(phenylmethyl)-2,3-dihydro-1H-isoindol-1-yl]-1H-benzimidazol-2-yl}pent-4-ynamide], the pIC50 in experiment [1] and in experiment [2] was above 7.00 in each case.

Turning to `COC(=O)Nc1nc2ccc(C3(C)c4ccccc4C(=O)N3c3cccc(C(F)(F)F)c3)cc2[nH]1` (stereo not shown) [Entry 254, methyl (6-{1-methyl-3-oxo-2-[3-(trifluoromethyl)phenyl]-2,3-dihydro-1H-isoindol-1-yl}-1H-benzimidazol-2-yl)carbamate], the pIC50 in experiment [1] and in experiment [2] was above 7.00 each time.

With `COC(=O)Nc1nc2cc(C3(O)c4ccccc4C(=O)N3c3cccc(OC(F)(F)C(F)F)c3)ccc2[nH]1` (stereo not shown) [Entry 255, methyl [5-(1-hydroxy-3-oxo-2-{3-[(1,1,2,2-tetrafluoroethyl)oxy]phenyl}-2,3-dihydro-1H-isoindol-1-yl)-1H-benzimidazol-2-yl]carbamate], the pIC50 in experiment [1] and in experiment [2] was 5.00 to 6.00 each time.

Consider `COC(=O)Nc1nc2cc(C3(O)c4ccccc4C(=O)N3c3cccc(C4CCNCC4)c3)ccc2[nH]1` (stereo not shown) [Entry 256, methyl {5-[1-hydroxy-3-oxo-2-(3-piperidin-4-ylphenyl)-2,3-dihydro-1H-isoindol-1-yl]-1H-benzimidazol-2-yl}carbamate], for which the pIC50 in experiment [1] and in experiment [2] was 6.00 to 7.00 each time.

For the compound `C=Cc1cccc(N2C(=O)c3ccccc3C2(O)c2ccc3[nH]c(NC(=O)OC)nc3c2)c1` (stereo not shown) [Entry 257, methyl {5-[2-(3-ethenylphenyl)-1-hydroxy-3-oxo-2,3-dihydro-1H-isoindol-1-yl]-1H-benzimidazol-2-yl}carbamate], the negative logarithm of the IC50 (pIC50) in experiment [1] and in experiment [2] was above 7.00 throughout.

`COC(=O)Nc1nc2cc(C3(O)c4ccccc4C(=O)N3c3cccc(N(C)C)c3)ccc2[nH]1` (stereo not shown) [Entry 258, methyl (5-{2-[3-(dimethylamino)phenyl]-1-hydroxy-3-oxo-2,3-dihydro-1H-isoindol-1-yl}-1H-benzimidazol-2-yl)carbamate]: the negative-log IC50 (pIC50) in experiment [1] and in experiment [2] was above 7.00 throughout.

`O=C(Nc1nc2ccc(C3(O)c4ccccc4C(=O)N3Cc3ccccc3)cc2[nH]1)C1CC1(F)F` (stereo not shown) [Entry 259, 2,2-difluoro-N-{6-[1-hydroxy-3-oxo-2-(phenylmethyl)-2,3-dihydro-1H-isoindol-1-yl]-1H-benzimidazol-2-yl}cyclopropanecarboxamide]: the negative-log IC50 (pIC50) in experiment [1] and in experiment [2] was above 7.00 in each case.

`CCNC(=O)Nc1nc2ccc(C3(O)c4ccccc4C(=O)N3c3ccc(F)cc3)cc2[nH]1` (stereo not shown) [Entry 260, N-ethyl-N′-{6-[2-(4-fluorophenyl)-1-hydroxy-3-oxo-2,3-dihydro-1H-isoindol-1-yl]-1H-benzimidazol-2-yl}urea]: the pIC50 in experiment [1] and in experiment [2] was above 7.00 each time.

Values taken from patent US7846959B2, “Raf modulators and methods of use” (Exelixis, Inc., priority 2004, dated 2010).
